From patent US4446133A, “1-Phenyl-4-carbamoyl piperazine compounds, process for preparation thereof and utilizations thereof” (Misuitoatsu Chemicals, Inc., priority 1980, dated 1984) come the findings set out here.

For one experiment, the system named is EL-4 leukemic cells. Put plainly: Test 3: In-Vitro Test of Inhibition of Growth of Cancer Cell by Macrophage. The experiment is classed as cell-based. As to conditions: for Take-in Ratio of 3H-thymidine (average value): 8 mg/kg intraperitoneal to mice, macrophages collected after 4 days, mixed with EL-4 cells, control 80.2; for Inhibition of take-in of 3H-thymidine by EL-4 cells / activation of macrophage, in words: 8 mg/kg intraperitoneal. Here is the method: The results of the test of the action of the effective ingredient of the present invention on the macrophage will now be described with reference to the following Test 3. More specifically, the separated macrophage and EL-4 leukemic cell were mixed and cultured, and ^3 H-thymidine was added to a culture medium and the quantity of ^3 H-thymidine incorporated into the EL-4 cell was determined to examine the activity of the macrophage. When the macrophage is activated by administration of the effective ingredient of the present invention, inhibition of the growth of EL-4 cell, that is, phagocytosis of the cancer cell by the macrophage, is observed. Accordingly, if the take-in amount of ^3 H-thymidine is measured and this amount is reduced, it is confirmed that the macrophage has been activated. […] The dose was 8 mg per Kg of the body weight. To the control group, a physiological saline solution was similarly administered. After passage of 4 days, exuded abdominal cells were collected and deposited on a plastic Petri dish to collect macrophages. Then, 1×10^6 of so obtained macrophages and 1×10^5 of EL-4 leukemic cells of C57 BL/6J mouse were mixed and cultured in an RPMI 1640 culture medium to which 10% of bovine embryo serum was added (at 37° C. in the presence of 5% of CO2) for 24 hours. Then, 0.1μ Ci of ^3 H-thymidine was added and culturing was further conducted for 16 hours. Cells were collected on a filter paper from the culture medium and the amount of ^3 H-thymidine taken in was determined by a liquid scintillation counter. […] For comparison, the test was similarly carried out by using Levamisol hydrochloride.

In the next experiment the test system is delayed hypersensitivity. Put plainly: Test 1: Test of Reinforcement of Delayed Hypersensitivity (picryl chloride). The experiment is classed as in vivo, ICR male mice. From the text:
This system was used for the test of reinforcement of delayed hypersensitivity.
One group of eight ICR male mice, each having a body weight of about 30 g, were used for the test.
Sensitization was effected by coating a 7% solution of picryl chloride in a 4/1 mixture of olive oil and acetone on the shaved abdomen of the mouse.
Simultaneously with sensitization, a solution or suspension of the compound of the present invention in a 0.2% solution of carboxymethyl cellulose in a physiological saline was orally administered to the mouse at a dose of 50 mg per Kg of the body weight. To the control group, a 0.2% carboxymethyl cellulose solution in a physiological saline was similarly administered.
The delayed hypersensitivity was challenged 7 days after sensitization by gripping the ear of the mouse by a forceps wrapped with a felt impregnated with a 1% solution of picryl chloride in olive oil and coating the ear with the solution. The thickness of the ear was measured before challenging and 24 hours after challenging and the ratio of increase of the thickness (average value of both the ears in eight mice±standard deviation) was obtained as shown in Table 1.
For comparison, the test was similarly carried out by using Levamisole hydrochloride, and the obtained results are shown in Table 1. F.t tests were carried out. The group in which the test result was significant at a level of P<0.05 was marked by *, and the group in which the test result was significant at a level of P<0.01 was marked by **.

The subject of the next experiment is adjuvant arthritis. Briefly: Test 2: Adjuvant Arthritis Test. The experiment is classed as in vivo, SD male rats. As to conditions: 5 mg/kg subcutaneous, 9 times, left hind leg, * P<0.05, ** P<0.01; for Swelling Ratio (average value ± standard variation), 15 days: control 84.4 ± 9.0; for Swelling Ratio (average value ± standard variation), 18 days: control 103.2 ± 9.7; for Swelling Ratio (average value ± standard variation), 21 days: control 107.5 ± 13.3.

The subject of experiment [1] is Sarcoma 180. Briefly: Test 4: Test of Antitumor Effect to Sarcoma 180 by Oral Administration. The experiment is classed as in vivo, ICR female mice. Here is the method: To the control group, a physiological saline solution was similarly administered. The dose of the compound was 100 mg per Kg of the body weight. The diameter D (mm) of the tumor was measured, and the average value and the number N of the living mice were determined to obtain results shown in Table 4.

Experiment [2] has as its system Sarcoma 180. Briefly: Test 5: Test of Antitumor Effect to Sarcoma 180 by Subcutaneous Administration. As to conditions: 20 mg/kg subcutaneous. The experiment is classed as in vivo, ICR female mice. As for the experimental part:
To the control group, a physiological saline solution was similarly administered. […] The diameter D (mm) of the tumor was measured, and the average value and the number N of the living mice were determined to obtain results shown in Table 4.

Setting [3] is: 50 mg/kg oral, simultaneously with sensitization, 24 h after challenge, control 29.6 ± 1.9, * P<0.05, ** P<0.01.

Structures can show the parent of a compound that is named as a salt.

For `CCN(CC)C(=O)N1CCN(c2ccc(C(=O)O)cc2)CC1` [drawing 27], the “Take-in Ratio of 3H-thymidine (average value)” value (from here on “Take-in Ratio of 3H-thymidine”) in the experiment on EL-4 leukemic cells amounted to 29.8%.
On to `CCN(CC)C(=O)N1CCN(c2ccc(Cl)cc2)CC1` [drawing 12], for which the “Ratio of Increase of Ear Thickness (average value ± standard variation)” value (from here on “Ratio of Increase of Ear Thickness”) with delayed hypersensitivity (setting [3]) was 42.3 ± 3.7%.
For `CCN(CC)C(=O)N1CCN(c2ccccc2)CC1` [drawing 17], in the experiment with adjuvant arthritis, the “Swelling Ratio (average value ± standard variation), 15 days” value (shortened to “Swelling Ratio … 15 days”) is 47.0 ± 8.0%; the “Swelling Ratio (average value ± standard variation), 18 days” value (“Swelling Ratio … 18 days” below) stood at 52.4 ± 9.2%; the “Swelling Ratio (average value ± standard variation), 21 days” value (from here on “Swelling Ratio … 21 days”) is reported as 59.8 ± 12.1%.
On to `CCN(CC)C(=O)N1CCN(c2ccccc2)CC1` [drawing 11], for which the “Ratio of Increase of Ear Thickness” value with delayed hypersensitivity (setting [3]) stood at 44.0 ± 5.0%.
Consider `CCN(CC)C(=O)N1CCN(c2ccc(OC)cc2)CC1` [drawing 13], for which the “Ratio of Increase of Ear Thickness” value in the experiment with delayed hypersensitivity (setting [3]) amounted to 40.1 ± 4.2%.
Take `CCN(CC)C(=O)N1CCN(c2ccccc2)CC1` [drawing 23]: in the experiment with EL-4 leukemic cells, the “Take-in Ratio of 3H-thymidine” value came to 24.4%.
`CCN(CC)C(=O)N1CCN(c2ccc(C(=O)O)cc2)CC1` [drawing 15]: the “Ratio of Increase of Ear Thickness” value in the experiment with delayed hypersensitivity (setting [3]) is on record as 37.7 ± 3.0%.
Regarding `CCOC(=O)c1ccc(N2CCN(C(=O)N(CC)CC)CC2)cc1` [drawing 26], the “Take-in Ratio of 3H-thymidine” value in the experiment on EL-4 leukemic cells stood at 30.3%.
Consider `CCN(CC)C(=O)N1CCN(c2ccc(OC)cc2)CC1` [drawing 19], for which, in the experiment with adjuvant arthritis, the “Swelling Ratio … 15 days” value is 60.1 ± 11.3%; the “Swelling Ratio … 18 days” value is 57.1 ± 8.8%; the “Swelling Ratio … 21 days” value was 64.4 ± 10.5%.
As for `CCOC(=O)c1ccc(N2CCN(C(=O)N(CC)CC)CC2)cc1` [drawing 14], the “Ratio of Increase of Ear Thickness” value with delayed hypersensitivity (setting [3]) is 39.1 ± 4.0%.
The same measure, in the same setting: the result for `CCN(CC)C(=O)N1CCN(c2ccc(C(C)=O)cc2)CC1` [drawing 16] reads 38.8 ± 3.5%.
In the case of `CCOC(=O)c1ccc(N2CCN(C(=O)N(CC)CC)CC2)cc1` [drawing 20], in the experiment on adjuvant arthritis, the “Swelling Ratio … 15 days” value came to 63.7 ± 12.0%; the “Swelling Ratio … 18 days” value was found to be 60.4 ± 9.2%; the “Swelling Ratio … 21 days” value is on record as 66.9 ± 11.1%.
Consider `CCN(CC)C(=O)N1CCN(c2ccc(Cl)cc2)CC1` [drawing 24], for which the “Take-in Ratio of 3H-thymidine” value with EL-4 leukemic cells turned out to be 20.5%.
For `c1ccc([C@H]2CN3CCSC3=N2)cc1` [Levamisole hydrochloride, reference compound], the “D: average diameter of tumor, 2 weeks” value is listed as 10.2 mm with Sarcoma 180 [1] (100 mg/kg oral once a day, 10 days, 2 weeks, control 10.6) and 7.7 mm in the experiment with Sarcoma 180 [2] (2 weeks, control 10.8). Moreover, the “D: average diameter of tumor, 4 weeks” value with Sarcoma 180 [1] (100 mg/kg oral once a day, 10 days, 4 weeks, control 15.2) amounted to 16.2 mm; in the experiment with Sarcoma 180 [2] (4 weeks, control 16.6), 14.8 mm. The “D: average diameter of tumor, 6 weeks” value in the experiment on Sarcoma 180 [1] (100 mg/kg oral once a day, 10 days, 6 weeks, control 22.4) is recorded as 20.7 mm; in the experiment on Sarcoma 180 [2] (6 weeks, control 20.3), 14.4 mm. Moreover, the “D: average diameter of tumor, 8 weeks” value came to 29.6 mm in the experiment with Sarcoma 180 [1] (100 mg/kg oral once a day, 10 days, 8 weeks, control 31.5) and 30.2 mm with Sarcoma 180 [2] (8 weeks, control 31.3). Besides, the “D: average diameter of tumor, 10 weeks” value in the experiment with Sarcoma 180 [1] (100 mg/kg oral once a day, 10 days, 10 weeks, control 37.6) was 28.1 mm; in the experiment with Sarcoma 180 [2] (10 weeks, control 40.5) it was 31.6 mm. Besides, the “Carcinostatic action on Sarcoma 180, in words” value in the experiment on Sarcoma 180 [1] (100 mg/kg oral, repeated) is “no substantial carcinostatic action was observed”. Moreover, the “N: number of living mice, 0 weeks” value was 6 with Sarcoma 180 [1] (100 mg/kg oral, of 6 mice, 0 weeks, control 6) and 6 in the experiment on Sarcoma 180 [2] (of 6 mice, 0 weeks, control 6). Further, the “N: number of living mice, 2 weeks” value in the experiment on Sarcoma 180 [1] (100 mg/kg oral, of 6 mice, 2 weeks, control 6) stood at 6; with Sarcoma 180 [2] (of 6 mice, 2 weeks, control 6) it was 6. For the same molecule, the “N: number of living mice, 4 weeks” value was 6 in the experiment on Sarcoma 180 [1] (100 mg/kg oral, of 6 mice, 4 weeks, control 6) and 6 with Sarcoma 180 [2] (of 6 mice, 4 weeks, control 6). The “N: number of living mice, 6 weeks” value is 6 in the experiment on Sarcoma 180 [1] (100 mg/kg oral, of 6 mice, 6 weeks, control 6) and 6 in the experiment on Sarcoma 180 [2] (of 6 mice, 6 weeks, control 6). The “N: number of living mice, 8 weeks” value was found to be 6 with Sarcoma 180 [1] (100 mg/kg oral, of 6 mice, 8 weeks, control 5) and 3 in the experiment with Sarcoma 180 [2] (of 6 mice, 8 weeks, control 4). Further, the “N: number of living mice, 10 weeks” value in the experiment on Sarcoma 180 [1] (100 mg/kg oral, of 6 mice, 10 weeks, control 1) is 3; in the experiment on Sarcoma 180 [2] (of 6 mice, 10 weeks, control 1), 2. Besides, in the experiment on adjuvant arthritis, the “Swelling Ratio … 15 days” value amounted to 65.2 ± 5.9%. The “Swelling Ratio … 18 days” value in the experiment with adjuvant arthritis is listed as 69.3 ± 7.1%. In addition, the “Swelling Ratio … 21 days” value in the experiment with adjuvant arthritis was found to be 80.7 ± 9.6%. The “Inhibition of take-in of 3H-thymidine by EL-4 cells / activation of macrophage, in words” value was “does not exhibit such action” with EL-4 leukemic cells and “hardly exhibits such action” in the experiment with EL-4 leukemic cells (listed as Levamisole). The “Take-in Ratio of 3H-thymidine” value in the experiment with EL-4 leukemic cells is reported as 49.0%. In the experiment with Sarcoma 180 [2], the “Carcinostatic activity on Sarcoma 180, in words” value was “no substantial carcinostatic activity”. The “Ratio of Increase of Ear Thickness” value in the experiment with delayed hypersensitivity (mouse, in vivo) came out at 35.6 ± 2.4%.
`CCN(CC)C(=O)N1CCN(c2ccc(C(C)=O)cc2)CC1` [drawing 28]: in the experiment with EL-4 leukemic cells, the “Take-in Ratio of 3H-thymidine” value was 27.4%.
For the molecule `CCN(CC)C(=O)N1CCN(c2ccc(OC)cc2)CC1` [drawing 25], the “Take-in Ratio of 3H-thymidine” value with EL-4 leukemic cells stood at 27.7%.
Regarding `CCN(CC)C(=O)N1CCN(c2ccc(C(=O)O)cc2)CC1` [drawing 21], in the experiment on adjuvant arthritis, the “Swelling Ratio … 15 days” value turned out to be 65.0 ± 10.2%; the “Swelling Ratio … 18 days” value came to 64.6 ± 7.9%; the “Swelling Ratio … 21 days” value turned out to be 70.8 ± 10.7%.
